Reference: PubChem BioAssay (NCI)
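Method: 48-hour compound exposure of cells in 96-well plates, five concentrations, linear interpolation of endpoints. GI50 marks 50% less growth. At the TGI there is no net growth.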

Experiments:
Experiment in all cases: DTP human tumour cell line panel, 48 h
CCRF-CEM leukemia = tested on: CCRF-CEM leukemia
HT29 colon = tested on: HT29 colon
SR leukemia = tested on: SR leukemia
HOP-62 NSCLC = tested on: HOP-62 NSCLC
SW-620 colon = tested on: SW-620 colon
EKVX NSCLC = tested on: EKVX NSCLC
K-562 leukemia = tested on: K-562 leukemia
UACC-257 melanoma = tested on: UACC-257 melanoma
SNB-19 CNS = tested on: SNB-19 CNS
SK-OV-3 ovarian = tested on: SK-OV-3 ovarian

Compound	TGI (CCRF-CEM leukemia) [µM]	TGI (HT29 colon) [µM]	TGI (SR leukemia) [µM]	TGI (HOP-62 NSCLC) [µM]	TGI (SW-620 colon) [µM]	TGI (EKVX NSCLC) [µM]	TGI (K-562 leukemia) [µM]	TGI (UACC-257 melanoma) [µM]	TGI (SNB-19 CNS) [µM]	TGI (SK-OV-3 ovarian) [µM]	GI50 (CCRF-CEM leukemia) [µM]	GI50 (HT29 colon) [µM]	GI50 (SR leukemia) [µM]	GI50 (HOP-62 NSCLC) [µM]	GI50 (SW-620 colon) [µM]	GI50 (EKVX NSCLC) [µM]	GI50 (K-562 leukemia) [µM]	GI50 (UACC-257 melanoma) [µM]	GI50 (SK-OV-3 ovarian) [µM]
N#CCc1nc(-c2ccccc2)n[nH]1	> 100	> 100	> 100	> 100	> 100	> 100	> 100	> 100	> 100	> 100	–	–	–	–	–	–	–	–	–
COc1ccc(S(=O)(=O)N2C(=O)CCC2C(=O)NN)cc1 (centres undefined)	> 100	> 100	> 100	> 100	> 100	> 100	> 100	> 100	> 100	> 100	–	–	–	–	–	–	–	–	–
CC(=O)O/N=C/c1c2ccccc2cc2ccccc12	> 100	> 100	> 100	> 100	> 100	> 100	> 100	> 100	> 100	69.6	–	–	–	–	–	–	–	–	–
CCCCNC(=S)N/N=C/c1cccc(C)n1	40.2	–	> 100	55.2	> 100	> 100	44.5	> 100	> 100	> 100	–	–	–	–	–	–	–	–	–
C/C1=C\CC[C@@]2(C)O[C@@H]2C[C@@H](C2(C)CO2)CC/C(C)=C/CC1 (some centres undefined)	> 100	> 100	> 100	97.3	> 100	36.1	> 100	> 100	41.3	> 100	–	–	–	–	–	–	–	–	–
O=C(CN(c1ccccc1)c1ccccc1)N1c2ccccc2C2C=CC=CC21 (centres undefined)	> 36.3	> 56.5	> 21.4	41.5	> 53.5	> 59.4	> 51.5	50.1	38.1	> 56.4	–	–	–	–	–	–	–	–	–
O=C(Nc1ccccc1F)c1cc2ccc(O)cc2oc1=Nc1ccccc1F	3.79	32.9	5.37	4.31	8.98	6.01	7.64	10.1	18.6	42.1	–	–	–	–	–	–	–	–	–
Cc1c(N2C(=O)C(Cl)C2c2ccc(Cl)cc2)c(=O)n(-c2ccccc2)n1C (centres undefined)	> 100	> 100	> 100	> 100	> 100	> 100	> 100	48.1	–	> 100	–	–	–	–	–	–	–	–	–
O=C(NCCCN(CCCCN(CCCNC(=O)C(F)(F)F)Cc1ccc2ccccc2c1)Cc1ccc2ccccc2c1)C(F)(F)F	> 100	2.57	7.18	> 100	> 100	> 100	7.34	4.58	–	> 100	–	–	–	–	–	–	–	–	–
Nc1nc(N)c(N=O)c(Nc2ccc(Br)cc2)n1	> 100	52.3	> 100	63.9	> 100	> 100	> 100	77	> 100	> 100	–	–	–	–	–	–	–	–	–
COC(=O)CCc1cc(OC)c2c(c1)[C@H](C(=O)OC)[C@@H](c1ccc(O)c(OC)c1)O2	> 100	> 100	19.1	> 100	> 100	> 100	50.4	> 100	> 100	> 100	–	–	–	–	–	–	–	–	–
COc1cc2nc(-c3cccs3)oc(=O)c2cc1OC	> 100	> 100	> 100	69.1	> 100	> 100	> 100	> 100	> 100	> 100	–	–	–	–	–	–	–	–	–
CNc1ncnc2c1cnn2COCC(O)CO (centres undefined)	> 100	> 100	> 100	> 100	> 100	> 100	> 100	> 100	> 100	> 100	–	–	–	–	–	–	–	–	–
O=c1ccn(C2OC(CO)C(P(=O)(O)O)C2O)c(=O)[nH]1 (centres undefined)	> 100	> 100	> 100	> 100	> 100	> 100	> 100	> 100	> 100	–	–	–	–	–	–	–	–	–	–
O=C(CNc1c(Cl)cccc1Cl)NC1C=Cc2ccc(S(=O)(=O)Nc3c(Cl)cccc3Cl)cc2C1=O (centres undefined)	> 100	> 100	> 100	> 100	> 100	> 100	> 100	> 100	> 100	> 100	–	–	–	–	–	–	–	–	–
O=C1NCC(NC(=O)C(F)(F)F)c2c(Br)sc(Br)c21 (centres undefined)	> 100	> 100	> 100	> 100	> 100	> 100	> 100	> 100	> 100	> 100	–	–	–	–	–	–	–	–	–
COc1cc(-c2cc(=O)c3cc4c(=O)cc(-c5cc(OC)c(OC)c(OC)c5)oc4cc3o2)cc(OC)c1OC	> 100	> 100	> 100	26.4	> 100	> 100	> 56	> 100	59.6	41.4	–	–	–	–	–	–	–	–	–
O=C1NCCS(=O)(=O)N[C@@H](CC2=CC=CCC2)C(=O)N2CCCC12 (some centres undefined)	> 100	> 100	> 100	> 100	> 100	> 100	> 100	> 100	> 100	> 100	–	–	–	–	–	–	–	–	–
O=C1Sc2ccccc2C(=O)N2CSCC12 (centres undefined)	> 100	> 100	> 100	> 100	> 100	> 100	> 100	> 100	> 100	> 100	–	–	–	–	–	–	–	–	–
C[C@@H](Cl)[C@H]1CCCN(Cc2ccc(Br)cc2)C1	> 12.5	> 12.5	> 12.5	> 12.5	> 12.5	> 12.5	> 12.5	> 12.5	> 12.5	> 12.5	–	–	–	–	–	–	–	–	–
COc1cc2cc(Oc3ccc(NC(=O)c4cc(C(F)(F)F)cc(C(F)(F)F)c4)cc3)c(C)nc2cc1OC	> 50	> 50	> 50	> 50	> 50	> 50	> 50	> 50	–	> 50	2.32	> 50	4.8	> 50	4.35	2.04	2.34	4.07	> 50
